From the NIST ThermoML archive (doi:10.1016/j.jct.2006.03.002)
± gives the expanded uncertainty stated by the source.

Experiment: molar heat capacity at constant pressure
Details: 101.33 kPa, Crystal, Small sample (50 mg) DSC

[F-].[Na+] [sodium fluoride]
molar heat capacity at constant pressure (630.6 K): 58.08 ± 1.4 J/K/mol | molar heat capacity at constant pressure (645.6 K): 58.11 ± 1.4 J/K/mol | molar heat capacity at constant pressure (675.7 K): 59.55 ± 1.5 J/K/mol | molar heat capacity at constant pressure (690.6 K): 59.36 ± 1.4 J/K/mol | molar heat capacity at constant pressure (720.6 K): 58.15 ± 1.4 J/K/mol | molar heat capacity at constant pressure (735.5 K): 59.11 ± 1.4 J/K/mol | molar heat capacity at constant pressure (750.6 K): 58.85 ± 1.4 J/K/mol | molar heat capacity at constant pressure (765.6 K): 59.28 ± 1.4 J/K/mol | molar heat capacity at constant pressure (795.6 K): 58.36 ± 1.4 J/K/mol | molar heat capacity at constant pressure (825.5 K): 58.26 ± 1.4 J/K/mol | molar heat capacity at constant pressure (840.4 K): 58.49 ± 1.4 J/K/mol | molar heat capacity at constant pressure (855.6 K): 59.14 ± 1.4 J/K/mol | molar heat capacity at constant pressure (870.6 K): 58.37 ± 1.4 J/K/mol | molar heat capacity at constant pressure (885.5 K): 59.37 ± 1.4 J/K/mol | molar heat capacity at constant pressure (900.5 K): 59.7 ± 1.5 J/K/mol | molar heat capacity at constant pressure (907.5 K): 59.76 ± 1.5 J/K/mol | molar heat capacity at constant pressure (915.5 K): 60.11 ± 1.5 J/K/mol | molar heat capacity at constant pressure (922.3 K): 60.21 ± 1.5 J/K/mol | molar heat capacity at constant pressure (937.4 K): 60.58 ± 1.5 J/K/mol | molar heat capacity at constant pressure (945.5 K): 59.64 ± 1.5 J/K/mol | molar heat capacity at constant pressure (952.5 K): 59.98 ± 1.5 J/K/mol | molar heat capacity at constant pressure (960.6 K): 60.43 ± 1.5 J/K/mol | molar heat capacity at constant pressure (967.5 K): 60.92 ± 1.5 J/K/mol | molar heat capacity at constant pressure (975.4 K): 59.89 ± 1.5 J/K/mol | molar heat capacity at constant pressure (982.6 K): 60.11 ± 1.5 J/K/mol | molar heat capacity at constant pressure (990.5 K): 61.01 ± 1.5 J/K/mol | molar heat capacity at constant pressure (997.5 K): 60.91 ± 1.5 J/K/mol | molar heat capacity at constant pressure (1012.6 K): 61.02 ± 1.5 J/K/mol | molar heat capacity at constant pressure (1027.6 K): 60.56 ± 1.5 J/K/mol | molar heat capacity at constant pressure (1042.6 K): 61.86 ± 1.5 J/K/mol | molar heat capacity at constant pressure (1057.7 K): 61.63 ± 1.5 J/K/mol | molar heat capacity at constant pressure (1072.7 K): 62.08 ± 1.5 J/K/mol | molar heat capacity at constant pressure (1087.8 K): 62.41 ± 1.5 J/K/mol | molar heat capacity at constant pressure (1102.9 K): 62.25 ± 1.5 J/K/mol
